For one series, the system named is human erythrocytes. Nature of the series: Human red blood cell hemolysis. The format is cell-based. As to conditions: 100 µM. How it is done:
With a few minor modifications, red blood cell hemolysis was carried out as previously described ([21]). On a 96-well microtiter plate, 100, 10, 1, and 0 µM NCRs, NCR094 and NCR992 were placed in each well, and […] of 1× PBS was carried out across the plate. Each well received an equivalent volume of 1% human erythrocytes that had been re-suspended in PBS after being washed once with PBS (5 minutes by centrifugation at 3,000 × g to prevent non-specific red blood cell lysis). The plate was then incubated at 37°C for 24 hrs.
As negative and positive controls for hemolysis, respectively, PBS alone and 1% sodium hypochlorite alone were utilized. At a wavelength of 405 nm, hemoglobin release was measured, and the hemolytic capability was expressed as a percentage of the sodium hypochlorite control (100%). The normalization equation normalization = NCR average – negative control average was used to compute the hemolysis percentage. Hemolysis percentage = normalization of NCRs ÷ average of positive control × 100. The hemolysis of 20% and above was considered as toxic to human red blood cells as reported previously ([22]). The mean values and standard deviation (SD) for each assay were carried out in triplicate and repeated three times.
Fig 6 The hemolysis % of the NCRs (NCR094 and NCR992) toward human red blood cells. One percent human red blood cells were treated with 100 µM of the NCRs. (A) NCR094 WT, NCR094.1, NCR094.2, and NCR094.3. (B) NCR992 WT, NCR992.1, NCR992.2, and NCR992 for 16 hrs without shaking. One hundred […] of supernatants was transferred into a new 96-well plate, and the absorbance was measured using a plate reader at 405 nm wavelength. Polymyxin B treatment was […] control. The results were represented as average of the % hemolysis and standard deviations from three independent experiments.
Figure S.1. Dose-dependent hemolysis assay for the NCR collection used in this study.
1% Human red blood cells were treated with 10-fold concentration (100, 10, 1, 0 μM) of NCRs A) (NCR094.1, B)
NCR992 WT) C) NCR992.1, D) NCR992.2, and E) NCR992.1for 18 hrs without shaking. […] of supernatants
were transferred into new 96-well plate and the absorbance was measured using a plate reader at 405 nm wavelength.
The results were represented as average of the % hemolysis and error bars were ± SD values from three independent
(also on this page, place not known: 10100 % of Toxicity 10100 80% of Toxicity 10100 % of Toxicity 10100 % of Toxicity 10100 S- % of Toxicity A)

For series [1], the system named is K. pneumoniae ATCC700603. The format is cell-based, Klebsiella pneumoniae. How it is done: (§1) Bacterial strains used in the experiment were MRSA ATCC29213 and K. pneumoniae ATCC700603. Three NCRs, NCR094 (GenBank# KEH42094.1), NCR992 (GenBank# KEH8992.1), and NCR888 (GenBank# KEH37888.1), and designed derivatives were supplied from GenScript (United States). MRSA and K. pneumoniae were streaked for colonies on blood agar plates and incubated at 37°C for 18–24 hrs. MRSA and K. pneumoniae’s colonies were cultured in cation-adjusted Mueller–Hinton broth (MHB) media and incubated at 37°C for 18–24 hrs. For the in vitro killing assay and the ex vivo human killing assay, MRSA and K. pneumoniae were cultured on an MHB agar plate for 18 hrs at 37°C.
(§2) A broth microdilution assay in cation-adjusted MHB (MilliporeSigma, United States) was used to determine the minimum inhibitory concentrations (MICs) and the mimium bactericidal concentration (MBCs) of our NCR collection’s NCR094, NCR888, and NCR992. After a final bacterial inoculum of 5 × 10^5 CFU/mL was set and incubated for an overnight period at 37°C, the MIC of the NCRs that prevented MRSA or K. pneumoniae from growing visibly was measured. The MBCs was measured by subculturing the broths used in MIC determination into fresh NCR-free agar plates. The MICs of the NCRs were measured after the NCRs were added to the MRSA or K. pneumoniae cultures and dissolved in sterile distilled water.
The bacterial cultures of MRSA and K. pneumoniae were treated with different concentrations of the synthetic NCRs (MRSA: 25, 12.5, 6.25, 3.125, and 0 µM; K. pneumoniae: 50, 25, 12.5, 6.25, 3.125, and 0 µM). […] Thus, NCR888 in the wild type and the different variants were not included in the downstream assays.

A further series concerns MRSA ATCC29213. Put plainly: Broth microdilution MIC/MBC. As to conditions: tested 25, 12.5, 6.25, 3.125 µM; post-18 hrs of treatment. The format is cell-based, Staphylococcus aureus. Here is the method:
as §1
as §2, with “water. […]” for “water.”

Series [2] relates to K. pneumoniae ATCC700603. The format is cell-based, Klebsiella pneumoniae. As to conditions: human whole blood, 12.5 µM, 18 hrs 37°C; mean of three independent experiments. Here is the method:
The whole killing assay was performed as previously described ([19]). Briefly, freshly drawn peripheral venous whole blood was collected on a heparin tube from healthy adult volunteers. To do this, unchallenged blood with and without NCRs at the MIC (blood from the same individuals) was used. Whole blood was then challenged with MRSA or K. pneumoniae ex vivo and incubated for an overnight period at 37°C. Tenfold serial dilution was plated on MH agar media post-18 hrs treatment ([19]). Killing% was calculated as follows: killing% = CFUs for no treatment − CFUs for NCR treatment ÷ […] × 100. Three independent experiments were performed.
The killing effect of NCRs on MRSA and K. pneumoniae was investigated using an ex vivo whole blood killing assay as a preliminary screening method to discover peptides with potential immune-boosting activity. […] The bactericidal ability (killing%) of human whole blood was monitored by counting the CFUs post-18 hrs, and the killing% was calculated.
Fig 2 Whole blood killing assay of NCR094 in the wild type and the derivatives, ex vivo antimicrobial assay. […] CFUs were calculated to estimate the killing percentage. […]
Fig 4 Whole blood killing assay of NCR992 in the wild type and the derivatives, the ex vivo antimicrobial assay. […] CFUs were calculated to estimate the killing percentage. […]

Values after ≈ are worked out from the molar mass of the structure shown. Where a SMILES comes first, the peptide text is derived from it. Where no end group is shown, it is not given here.

`CC(C)C[C@H](NC(=O)[C@@H](N)Cc1ccc(O)cc1)C(=O)N[C@@H](CCCCN)C(=O)N[C@@H](CS)C(=O)N[C@@H](CCCCN)C(=O)N[C@H](C(=O)N[C@H](C(=O)N[C@@H](Cc1c[nH]cn1)C(=O)N[C@@H](CC(=O)O)C(=O)N[C@@H](CS)C(=O)N1CCC[C@H]1C(=O)N[C@@H](CCCCN)C(=O)O)C(C)C)[C@@H](C)O` [NCR094.1] (H-YLKCKTVHDCPK-OH; N-terminus and C-terminus assumed) displayed a hemolysis % in the series with human erythrocytes of 49.38%.
`CC[C@H](C)[C@H](NC(=O)[C@H](CCCCN)NC(=O)[C@@H](NC(=O)[C@H](C)NC(=O)[C@H](CCCNC(=N)N)NC(=O)[C@H](CS)NC(=O)[C@H](Cc1ccc(O)cc1)NC(=O)[C@H](CC(N)=O)NC(=O)CNC(=O)[C@@H](NC(=O)[C@H](CS)NC(=O)[C@H](CCCNC(=N)N)NC(=O)[C@H](Cc1ccc(O)cc1)NC(=O)[C@@H](NC(=O)[C@@H](NC(=O)[C@@H](N)CCC(N)=O)C(C)C)C(C)C)C(C)C)C(C)C)C(=O)N[C@@H](CCCNC(=N)N)C(=O)N[C@@H](CCCNC(=N)N)C(=O)N[C@@H](Cc1c[nH]c2ccccc12)C(=O)N[C@@H](CC(N)=O)C(=O)N[C@@H](CC(C)C)C(=O)NCC(=O)O` [NCR094.2] (H-QVVYRCVGNYCRAVKIRRWNLG-OH; N-terminus and C-terminus assumed) displayed a hemolysis % in the series with human erythrocytes of 8.99%.
Consider `CC[C@H](C)[C@H](NC(=O)[C@H](CCCCN)NC(=O)[C@@H](NC(=O)[C@H](C)NC(=O)[C@H](CCCNC(=N)N)NC(=O)[C@H](CS)NC(=O)[C@H](Cc1ccc(O)cc1)NC(=O)[C@H](CC(N)=O)NC(=O)CNC(=O)[C@@H](NC(=O)[C@H](CS)NC(=O)[C@H](CCCNC(=N)N)NC(=O)[C@H](Cc1ccc(O)cc1)NC(=O)[C@@H](NC(=O)[C@@H](NC(=O)[C@H](CCC(N)=O)NC(=O)[C@H](CO)NC(=O)[C@H](CCCCN)NC(=O)[C@@H]1CCCN1C(=O)[C@H](CS)NC(=O)[C@H](CC(=O)O)NC(=O)[C@H](Cc1c[nH]cn1)NC(=O)[C@@H](NC(=O)[C@@H](NC(=O)[C@H](CCCCN)NC(=O)[C@H](CS)NC(=O)[C@H](CCCCN)NC(=O)[C@H](CC(C)C)NC(=O)[C@@H](N)Cc1ccc(O)cc1)[C@@H](C)O)C(C)C)C(C)C)C(C)C)C(C)C)C(C)C)C(=O)N[C@@H](CCCNC(=N)N)C(=O)N[C@@H](CCCNC(=N)N)C(=O)N[C@@H](Cc1c[nH]c2ccccc12)C(=O)N[C@@H](CC(N)=O)C(=O)N[C@@H](CC(C)C)C(=O)NCC(=O)O` [NCR094] (H-YLKCKTVHDCPKSQVVYRCVGNYCRAVKIRRWNLG-OH; N-terminus and C-terminus assumed), for which, in the series with K. pneumoniae ATCC700603 [1] (ATCC700603), the “minimum inhibitory concentration (MIC)” value was 12.5 µM (≈ 52 µg/mL). Moreover, the “minimum bactericidal / killing concentration (MBC), complete killing” value with K. pneumoniae ATCC700603 [1] (ATCC700603, 18 h) came to 25 µM. Moreover, the hemolysis % in the series on human erythrocytes is reported as 15.41%.
`CC[C@H](C)[C@H](NC(=O)[C@H](CCSC)NC(=O)CNC(=O)[C@H](Cc1ccccc1)NC(=O)[C@H](CCC(=O)O)NC(=O)[C@H](CS)NC(=O)[C@@H](N)CCSC)C(=O)N[C@@H](CCCNC(=N)N)C(=O)N[C@@H](CCCNC(=N)N)C(=O)N[C@@H](CS)C(=O)O` [NCR992.1] (H-MCEFGMIRRC-OH; N-terminus and C-terminus assumed) showed a hemolysis % in the series with human erythrocytes of 63.67%.
Still for that read-out and setting: then `CC[C@H](C)[C@H](N)C(=O)N[C@@H](CO)C(=O)N[C@@H](Cc1ccc(O)cc1)C(=O)N[C@@H](CCCCN)C(=O)N[C@@H](CS)C(=O)N[C@@H](CCC(N)=O)C(=O)N[C@@H](CS)C(=O)N[C@@H](Cc1c[nH]cn1)C(=O)N[C@@H](CCC(=O)O)C(=O)N[C@@H](C)C(=O)N[C@@H](Cc1ccc(O)cc1)C(=O)O` [NCR992.2] (H-ISYKCQCHEAY-OH; N-terminus and C-terminus assumed), with 66.77%.
On to “MCWPSFKPRCSNGWCVCDKIMP [NCR888, wild-type nodule-specific cysteine-rich peptide of Medicago truncatula, 22 residues, chemically synthesized]”, for which the “inhibition or killing of MRSA (in words)” value with MRSA ATCC29213 was “did not inhibit or kill”. The “inhibition or killing of K. pneumoniae (in words)” value with K. pneumoniae ATCC700603 [1] (tested 50, 25, 12.5, 6.25, 3.125 µM, post-18 hrs of treatment) was “did not inhibit or kill”.
In the series with human erythrocytes, MSEFGMIRRSISYKSQSHEAY [NCR992.3] displayed a hemolysis % of 93.34%.
Regarding “YLKSKTVHDSPKSQVVYRSVGNYCRAVKIRRWNLG [NCR094.3]”, the hemolysis % in the series on human erythrocytes is on record as 0.69%. For the same molecule, the “Killing% of K. pneumoniae ex vivo” value in the series with K. pneumoniae ATCC700603 [2] is recorded as “relatively similar killing activity”.

Values taken from PMC10845954, “Novel antimicrobial peptides identified in legume plant, Medicago truncatula” (Microbiology Spectrum, 2024).
